# From patent publication US20130023681A1, “STABILIZED DOXERCALCIFEROL AND PROCESS FOR MANUFACTURING THE SAME” (ALPHORA RESEARCH INC., priority 2010, published 2013)
# “Also recorded” adds a separate entry of the source.
# What was measured:
# [1] = Accelerated storage study (HPLC analysis of stored samples); format: physicochemical
# Description: (§1) Samples of material generated by the aforementioned procedure were quarantined, stored and subjected to 2 stability studies:
# (§2) Both studies employed ICH-compliant stability chambers for controlled storage, and the following HPLC method for analysis of samples:
# (§3) HPLC Detector/wavelength: Photo Diode Array Detector/190-400 nm
# (§4) Column: Waters SUNFIRE C18, 4.6 by 150 mm, 3.5 μm
# (§5) Column/sample Temperature: 25° C./5° C.
# (§6) Flow Rate/injection volume: 1.2 mL per min/10.00 μL
# (§7) Sample concentration: 1 mg/mL
# (§8) Diluent: Water: DCM: MeOH: ACN (10: 5: 10: 75)
# (§9) Eluent: A (H2O); B (ACN); C (MeOH)
# Samples were subjected to the following conditions: 25±2° C./60±2% R.H., Argon headspace. Samples were stored in ICH-compliant stability chambers, sampled at 1, 3 and 6 months, and analyzed using the described HPLC method.
# [2] = Long term stability study (HPLC analysis of stored samples); format: physicochemical
# Description: as §1, §2, §3, §4, §5, §6, §7, §8, §9
# Samples were subjected to the following conditions: 5±3° C. Argon headspace, −20±5° C., Argon headspace. Samples were stored in ICH-compliant stability chambers, sampled at 1, 3, 6 and 9 months, and analyzed using the described HPLC method.
smiles,measurement,setting,value
C=C1/C(=C\C=C2/CCC[C@]3(C)[C@@H]([C@H](C)/C=C/[C@H](C)C(C)C)CC[C@@H]23)C[C@@H](O)C[C@@H]1O [1α-hydroxyvitamin D2],HPLC purity after accelerated storage,"[1]; 25±2° C./60±2% R.H., Argon headspace, time-points 1, 3 and 6 months, initial (t=0) HPLC a/a purity >99.0% a/a",≥ 99.0%
same,HPLC assay after accelerated storage,"[1]; 25±2° C./60±2% R.H., Argon headspace, time-points 1, 3 and 6 months, initial (t=0) HPLC w/w assay >99.0% w/w",≥ 99.0 % w/w
same,Change in purity on accelerated storage (in words),"[1]; samples of purity 99% and above, 1, 3 and 6 months at 25±2° C., relative humidity 60±2%, argon headspace",no reduction in purity
same,HPLC purity after long term storage,"[2]; 5±3° C. Argon headspace, −20±5° C. Argon headspace, time-points 1, 3, 6 and 9 months, initial (t=0) HPLC a/a purity >99.0% a/a",≥ 99.0%
same,HPLC assay after long term storage,"[2]; 5±3° C. Argon headspace, −20±5° C. Argon headspace, time-points 1, 3, 6 and 9 months, initial (t=0) HPLC w/w assay >99.0% w/w",≥ 99.0 % w/w
same,Change in purity / stability in ICH stability studies (in words),"[2]; samples of purity 99% and above, six months under argon headspace at either −20±5° C. or 5±3° C.",unexpectedly high stability; also recorded: no reduction in purity
